Measured values from paper PMC8700221, “Long-Term Treatment with Atypical Antipsychotic Iloperidone Modulates Cytochrome P450 2D (CYP2D) Expression and Activity in the Liver and Brain via Different Mechanisms” (Cells, 2021).

How the values were obtained:
Assay type in all cases: biochemical
[1] = system: T1, CYP2D (rat brain microsomes); assay: bufuralol […]'-hydroxylation in whole-brain microsomes, HPLC with fluorometric detection; settings: NADPH-generating system; 2 mg protein/mL; no inhibitor; CYP2D isoenzymes mixed
T1 construct: gene Cyp2d4; native enzymes in pooled whole-brain microsomes of control male rats (n = 10); CYP2D4 named main brain form

[2] = system: T2, CYP2D (rat liver microsomes); assay: bufuralol […]'-hydroxylation in liver microsomes, HPLC with fluorometric detection; settings: NADPH-generating system; 0.5 mg protein/mL; no inhibitor; CYP2D isoenzymes mixed
T2 construct: gene Cyp2d1; native enzymes in pooled liver microsomes of control male rats (n = 10); CYP2D1 and CYP2D2 named most abundant in liver

[3] = target: T1, CYP2D (rat brain microsomes); assay: bufuralol […]'-hydroxylation in whole-brain microsomes, HPLC with fluorometric detection, Dixon plot; settings: competitive; bufuralol 50, 100 and 200 µM; iloperidone 25-500 µM; 2 mg protein/mL; NADPH-generating system; CYP2D isoenzymes mixed
[4] = target: T2, CYP2D (rat liver microsomes); assay: bufuralol […]'-hydroxylation in liver microsomes, HPLC with fluorometric detection, Dixon plot; settings: competitive; bufuralol 5, 10 and 20 µM; iloperidone 1-250 µM; 0.5 mg protein/mL; NADPH-generating system; CYP2D isoenzymes mixed

Km [1] [µM] | Km [2] [µM] | Ki [3] [µM] | Ki [4] [µM] | SMILES
492 | 8.26 | – | – | CCc1cccc2cc(C(O)CNC(C)(C)C)oc12 (stereo not shown) [bufuralol]
– | – | 462 | 11.5 | COc1cc(C(C)=O)ccc1OCCCN1CCC(c2noc3cc(F)ccc23)CC1 [iloperidone]
